Source: article PMC3921447, “Homologous and heterologous desensitization of guanylyl cyclase-B signaling in GH3 somatolactotropes” (Cell and Tissue Research, 2013)

Legend:
GC-A = biological target: T1, GC-A (Rattus norvegicus, UniProt P18910); assay: Effect of natriuretic peptide pre-treatment on ANP-stimulated (GC-A) cGMP accumulation in GH3 cells; format: cell-based; conditions: 100 nM CNP pre-treatment 6 h, then 100 nM ANP plus 1 mM IBMX 15 min; Fig. 3d; ns, P > 0.05
T1 construct: Evidence of homologous desensitization of endogenous GC-A- and GC-B-mediated signaling in GH3 cells; endogenous in cells; host or cells: GH3 rat somatolactotrope cells
T1 sequence (P18910 29-1057): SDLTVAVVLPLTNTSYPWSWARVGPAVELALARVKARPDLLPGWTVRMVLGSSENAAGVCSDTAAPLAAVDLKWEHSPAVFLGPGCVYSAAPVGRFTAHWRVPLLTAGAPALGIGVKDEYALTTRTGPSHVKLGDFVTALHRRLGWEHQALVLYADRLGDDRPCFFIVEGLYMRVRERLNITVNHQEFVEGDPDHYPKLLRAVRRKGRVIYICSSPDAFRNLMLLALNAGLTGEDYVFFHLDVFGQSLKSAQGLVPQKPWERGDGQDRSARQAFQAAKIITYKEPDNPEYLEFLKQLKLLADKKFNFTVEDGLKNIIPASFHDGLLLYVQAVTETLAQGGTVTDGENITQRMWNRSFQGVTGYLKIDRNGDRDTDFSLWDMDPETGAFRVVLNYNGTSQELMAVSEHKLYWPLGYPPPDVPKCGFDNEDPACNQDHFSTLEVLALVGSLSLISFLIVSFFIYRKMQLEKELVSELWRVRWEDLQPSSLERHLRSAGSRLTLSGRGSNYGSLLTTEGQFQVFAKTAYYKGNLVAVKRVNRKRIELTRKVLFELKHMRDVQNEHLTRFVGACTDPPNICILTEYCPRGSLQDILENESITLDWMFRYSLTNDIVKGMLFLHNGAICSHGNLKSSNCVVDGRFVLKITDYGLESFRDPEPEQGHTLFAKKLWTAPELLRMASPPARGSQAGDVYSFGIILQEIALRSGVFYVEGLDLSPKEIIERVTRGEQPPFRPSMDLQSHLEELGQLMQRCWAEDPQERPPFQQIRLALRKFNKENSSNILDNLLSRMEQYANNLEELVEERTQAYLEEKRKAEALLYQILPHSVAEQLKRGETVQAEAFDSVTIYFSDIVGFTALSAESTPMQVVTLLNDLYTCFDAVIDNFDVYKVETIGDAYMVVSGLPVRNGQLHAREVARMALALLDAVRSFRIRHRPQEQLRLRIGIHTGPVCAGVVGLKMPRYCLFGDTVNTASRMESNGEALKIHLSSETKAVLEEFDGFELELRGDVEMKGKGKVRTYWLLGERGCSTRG
Protocol: Having established that GC-B signaling but not that of GC-A receptors, underwent rapid homologous desensitization, we next examined the effect of prolonged exposure of each receptor to its specific ligand. GH3 cells pre-treated with either ANP or CNP for 0 (control) to 6 h reduced the response to a subsequent 15-min treatment of ANP or CNP (with IBMX). […] The amount of cGMP measured from the 15-min pre-treatment sample was reduced by 39.6 ± 0.002 % (***P < 0.001). This effect was maintained up to the 6-h pre-treatment with CNP, which was reduced by 37.9 ± 7.1 % compared with the control (***P < 0.001).
Fig. 3 Effect of chronic exposure to CNP and ANP on GC-B- and GC-A-dependent cGMP accumulation in GH3 cells. Cells were initially treated with (a) 100 nM CNP or (b) 100 nM ANP in PSS without IBMX for 0 to 6 h. The medium was removed and replaced with 100 nM CNP (a) or 100 nM ANP (b) for 15 min in the presence of 1 mM IBMX. […]
In similar experiments designed to examine the effect of ANP pre-exposure to GC-A activity, a significant reduction in cGMP accumulation was observed within 30 min of ANP pre-treatment (by 28.9 ± 3.1 % compared with the control, *P < 0.05). […] In order to test the receptor specificity of the observed down-regulation of GC-B upon pre-treatment with CNP and of GC-A upon pre-treatment with ANP, the effects of ANP on GC-B and CNP on GC-A desensitization were determined. […]

GC-A and GC-B receptors = conditions: prolonged exposure; ref Fan et al. [2005]; Dickey et al. [2011]; cited from earlier work
Excerpt: Pharmacological regulation of the GC-B receptor has been elegantly described through many studies by Potter and Hunter ([1998a], [1999]) who have shown that dephosphorylation of specific serine and threonine residues of the GC-B receptor leads to rapid homologous desensitization. In keeping with the extensive literature describing the regulation of GC-A receptors (Potter et al. [2006]), enhancement of protein kinase C (PKC) activity leads to heterologous desensitization (Potter and Hunter [2000]).

For `CC[C@H](C)[C@@H]1NC(=O)[C@H](CCCNC(=N)N)NC(=O)[C@H](CC(=O)O)NC(=O)[C@H](CC(C)C)NC(=O)[C@H](CCCCN)NC(=O)[C@H](CC(C)C)NC(=O)CNC(=O)[C@H](Cc2ccccc2)NC(=O)[C@@H](NC(=O)CNC(=O)[C@H](CCCCN)NC(=O)[C@H](CO)NC(=O)[C@H](CC(C)C)NC(=O)CN)CSSC[C@@H](C(=O)O)NC(=O)CNC(=O)[C@H](CC(C)C)NC(=O)CNC(=O)[C@H](CO)NC(=O)[C@H](CCSC)NC(=O)[C@H](CO)NC(=O)CNC1=O` [CNP, C-type natriuretic peptide], the “ANP-stimulated cGMP after CNP pre-treatment vs control” value (GC-A) is given as “not significantly different from the control samples” and the agonist-induced internalization (GC-A and GC-B receptors) is given as “does not appear to cause agonist-induced internalization”.
